From patent US8263642B2, “Antimicrobial compounds and methods of use thereof” (Vanderbilt University, priority 2008, dated 2012)

Key:
[1] = tested on: hrtAB-driven expression of the xylE reporter gene; assay: XylE reporter assay (hrtAB promoter-xylE), Newman; type: cell-based, Staphylococcus aureus; conditions: for XylE (0.5): level of XylE induction at 0.5 uM of the compound; for XylE (5.0): level of XylE induction at 5.0 uM of the compound; for XylE (50.0): level of XylE induction at 50.0 uM of the compound; for XylE (0.05): level of XylE induction at 0.05 uM of the compound
Description: (§1) With reference to Table 1, “Luminescence” refers to the raw luminescence value obtained in a luminomter. “Control (82.5 nm)” refers to the luminescence value obtained from heme at 82.5 nM as a positive control in the same plate as the experimental. “% lum” is the percentage of luminescence induced by the compound as compared to the heme control in the same plate. […] All of these assays are described in the application. […] “N/T” indicates the test was not performed.
Compounds that activate HssRS-driven hrtAB expression in the luciferase-based screen can be subjected to two separate counter screens to confirm these compounds as active hits. First, compounds of interest can be tested for their ability to activate expression of hrtAB in the XylE expression assay described hereinbelow. This is an in vitro assay that measures hrtAB-driven expression of the xylE reporter gene. The XylE-based reporter assay utilizes slightly more manipulations than the primary luciferase-based screen. […] It should be appreciated that a shortcoming of this counter screen is that it measures reporter gene expression, which is a similar activity as that measured in the primary assay. To address this shortcoming, compounds that are positive in both XylE- and luciferase-based assays can be subjected to a second counter screen as described hereinbelow.
S. aureus strains harboring the appropriate reporter construct were inoculated into 500 μl of TSB containing 10 μg/ml chloramphenicol in 1.5 ml tubes. Cultures were grown O/N at 37° C. with shaking. Bacteria were pelleted by centrifugation and spent medium was aspirated. The pellet was washed once with 500 μl of 20 mM potassium phosphate, pH 7.6, and resuspended in 150 μl of 100 mM potassium phosphate buffer, pH 8.0, 10% (v/v) acetone, 25 μg/ml lysostaphin. After 20 minute incubation at 37° C. and 5 minute incubation on ice, samples were centrifuged at 20,000 g for 30 minutes at 4° C. 1-10 μl of supernatant was added to a 96-well plate and 200 μl of 100 mM potassium phosphate, pH 8.0, 0.2 mM pyrocatechol was added to each well. Formation of 2-hydroxymuconic semialdehyde was tracked by measuring the absorbance at 375 nm every minute for 30 minutes on a Varian MP 50 microplate reader. Protein concentration in samples was determined by BCA (Pierce). One unit of specific activity of XylE in a sample is defined as the formation of 1 nmol of 2-hydroxymuconic semialdehyde per minute per milligram of cellular protein at 30° C. (Chien, Y., Manna, A. C., Projan, S. J., and Cheung, A. L. 1999, “SarA, a global regulator of virulence determinants in Staphylococcus aureus, binds to a conserved motif essential for sar-dependent gene regulation. J. Biol. Chem. 274, 37169-37176).
The hrtAB intergenic region was fused to the xylE structural gene by PCR-SOE. In the first reaction, primer P1B:[…] and P2B:[…] were used to amplify the hrtAB intergenic region from S. aureus strain Newman genomic DNA. In the second PCR reaction primers P3B:[…] and P4B:[…] were used to amplify the xylE structural gene using pALC1639 template DNA (provided by Dr. Ambrose Cheung) and PCR product purified using a Qiagen gel extraction kit. For the PCRSOE reaction, a 1:300 dilution of purified reaction 1 and reaction 2 PCR products was mixed and amplified by PCR using […]. This yielded a construct in which the hrtAB intergenic region is fused to the xylE gene in such a manner that the position of the start codon for xylE corresponds to the position of the start codon for […] in the hrtAB locus. The hrtAB promoter-xylE fusion DNA was then subcloned into pOS1. As a control we also constructed a promoterless xylE vector. The xylE gene was amplified from pACL1639 template DNA using the primers P1C:[…] and P2C:[…] and then cloned into the pOS1 vector.

[2] = tested on: HssRS-dependent hrtAB expression; assay: Luminescence-based assay to monitor HssRS-dependent hrtAB expression (phrtABlux reporter), Newman; type: cell-based, Staphylococcus aureus; conditions: Newman; for activation at 0.0825 µM: Staphylococcus aureus, NEWMAN, read-out: % Lumi, luminescence induced by the compound compared to the heme control (82.5 nM) in the same plate; for Luminescence: raw luminescence value obtained in a luminometer
Description: as §1
A hrtAB-driven expression system was created in the pXen vector system (Xenogen) (Francis, K. P., D. Joh, C. Bellinger-Kawahara, M. J. Hawkinson, T. F. Purchio, and P. R. Contag. 2000. Monitoring bioluminescent Staphylococcus aureus infections in living mice using a novel luxABCDE construct. Infect Immun 68:3594-3600). This vector contains a promoterless luxCDABE operon from Photorabdus luminescens which produces blue green light when expressed. The luxCDABE encodes for a fatty acid reductase (LuxCDE) that produces a long chain fatty aldehyde which, when combined with cellular flavin mononucleotide, is oxidized by a luciferase (LuxAB) to produce light. Therefore, this system is useful in that it bypasses the need for substrate addition and is capable of generating light in the absence of any added reagents. Furthermore, the luminescent signal produced by the combined activities of LuxAB and LuxCDE is of sufficient intensity to be visualized in unmanipulated intact bacteria.
To establish an assay that measures HssRS-dependent expression of luxCDABE, the promoter for hrtAB upstream of luxCDABE was cloned and transformed this vector (phrtABlux) into wildtype and ΔhssR S. aureus. A promoterless vector (plux) and a plasmid containing luxCDABE under the control of a constitutive promoter (psrtAlux) (Mazmanian, S. K., G. Liu, H. Ton-That, and O. Schneewind. 1999. “Staphylococcus aureus sortase, an enzyme that anchors surface proteins to the cell wall.” Science 285:760-763) were included as negative and positive controls, respectively. Initially, wildtype S. aureus harboring either plux, phrtABlux, or psrtAlux were plated on solid medium that either lacked heme or contained 4 μM heme. Only wildtype S. aureus containing psrtAlux produced light on solid media regardless of the presence or absence of heme. […] Light was not produced by bacteria containing plux in either condition.
To adapt this system for a HTS to measure ligand recognition by HssRS, luminescence of wildtype and ΔhssR harboring the above listed plasmids in liquid media with or without heme was measured. […] Taken together, these experiments establish a whole cell […] assay that can identify small molecule modifiers of HssRS. This screen, in some aspects, can identify molecules that can be used as molecular probes in structure-function analyses to determine the mechanism by which S. aureus sense host heme.
Upon staphylococcal exposure to heme, HssRS senses heme and activates expression of hrtAB. This process can be measured using a reporter assay that employs a vector encoding the light-producing luxCDABE operon under the control of the hrtAB promoter. This assay results in whole cell luminescence upon HssRS-dependent activation of hrtAB, forming the foundation for the development of an assay suitable for high-throughput screens for small molecule activators of HssRS.
To develop an automated HTS format, S. aureus wildtype and ΔhssR harboring reporter constructs (psrtAlux, phrtAlux, plux) can be grown for 15 hours at 37° C. in tryptic soy broth (TSB) containing 10 μg/ml chloramphenicol. The addition of chloramphenicol is useful to ensure that the staphylococci propagate the reporter plasmid upon cell division. Following growth, bacterial cultures can be normalized and 2×10^7 cells (approximately 2 μl) can be added to individual wells of black walled, clear bottomed, 96-well plates. […]

Row | SMILES | XylE (0.5) [1] | XylE (5.0) [1] | XylE (50.0) [1] | activation at 0.0825 µM [2] [%] | Luminescence [2] | XylE (0.05) [1]
1 | O=C(NC(=S)Nc1ccc(Oc2ccccc2)cc1)c1cccs1 | 0.01 | 0.09 | 0.01 | 415 | 1774 | 
2 | CC(/C=N/NC(=O)C1COc2ccccc2O1)=C\c1ccccc1 (stereo not shown) | 0.04 | 0.2 | 0.05 | 139 | 507 | 0.07
3 | CC(C)c1ccc(NS(=O)(=O)c2ccc3[nH]c(-c4ccccc4)nc3c2)cc1 | 1 | 9 | 1 |  | 2146 | 1
4 | COc1ccccc1N1C(=O)c2ccc(C(=O)OC(C)C(=O)c3ccc(C)cc3)cc2C1=O (stereo not shown) | 0.6 | 0.7 | 1 |  | 3189 | 1
5 | COc1cc(OC)cc(C(=O)Nc2ccc(-c3nc4cc(C)ccc4o3)cc2)c1 | 0.1 | 0.6 | 0 | 345 | 1765 | 
6 | Oc1ccc(Nc2n[n+](-c3ccc(Cl)cc3)cc3ccccc23)cc1 | 6 | 1 | 0.6 |  | 2098 | 0.5
7 | Cc1ccc(Nc2nc(-c3ccccc3O)nc3ccccc23)cc1 | 0.04 | 0.1 | 0.08 | 360 | 1922 | 
8 | O=C1c2ccccc2C(=O)C1C1=NNC(c2ccccc2)C1 (stereo not shown) | 0.06 | 0.1 | 0.8 | 81.7 | 2680 | 0.05
9 | COc1cccc(-c2cc(C(=O)Nc3ccccc3C(F)(F)F)c3ccccc3n2)c1 | 0 | 0.05 | 0.09 | 450 | 1642 | 
10 | CCCCCCC(=O)NC(NC(=S)Nc1ccccc1O)C(Cl)(Cl)Cl (stereo not shown) | 0.2 | 0.04 | 0.03 |  | 2766 | 0.5
11 | COc1ccc(/N=c2\nc(-c3ccccc3)n(-c3ccc(C)cc3)s2)cc1 | 0.04 | 0 | 0 | 266 | 757 | 0.02
12 | Cc1cccc(NC(=S)N/N=C/c2cc(Br)ccc2O)c1 | 0.2 | 0 | 0 | 161 | 589 | 0.09
13 | O=C(Nc1ccc(/N=N/c2ccccc2)cc1)c1cccnc1 | 1 | 1 | 0.7 |  | 3086 | 0
14 | O=[N+]([O-])c1ccc(O)c(/C=N/c2ccccc2-c2nc3ccccc3s2)c1 | 50 | 1 | 1 | 630 | 2904 | 1
15 | CCOc1ccc(NC(=O)c2sc3nc(C)nc(N4CCCCC4)c3c2C)cc1 | 0.07 | 1 | 1 |  | 2277 | 1
16 | O=[N+]([O-])c1ccc(O)c(C2NN=C(Cc3ccccc3)S2)c1 (stereo not shown) | 0.05 | 1 | 1 | 871 | 2805 | 0.02
17 | Brc1ccc2[nH]cc(-c3nc(-c4ccccc4)c(-c4ccccc4)[nH]3)c2c1 | 2 | 1 | 1 |  | 2549 | 0.4
18 | Brc1ccc(CN2CCN(c3ccccc3)CC2)o1 | 0.05 | 1 | 0.02 | 39.3 | 166 | 0.07
19 | O=C(Nc1ccccc1C(=O)Nc1ccc(Cl)cc1)c1ccccc1 | 0.08 | 0.08 | 0.06 | 92 | 309 | 0.05
20 | Oc1ccccc1-c1nc(NC2CCCC2)c2ccccc2n1 | 0.09 | 0.02 | 0 | 591 | 1637 | 
21 | Cc1ccc(CNC(=O)c2ccc(CSCc3ccccc3Cl)o2)cc1 | 0.08 | 0.7 | 0.8 | 192 | 1603 | 
22 | Nc1ccccc1C(=O)Nc1nc2ccc(Cl)cc2s1 | 0.01 | 0.03 | 0.04 |  | 1741 | 
23 | FC(F)(F)c1cccc(Nc2nc(-c3cccnc3)nc3ccccc23)c1 | 0.02 | 0.05 | 0.02 |  | 1616 | 
